The numbers were not newly measured in patent US7060695B2, “Method to prevent vision loss” (QLT, Inc., priority 2001, dated 2006), which cites them from elsewhere.

For this data set, the system named is CNV. As to conditions: approved protocol, re-treatment as frequently as every three months if CNV leakage.

Turning to verteporfin, the closure of neovasculature result is “closes neovasculature” and the “loss of visual acuity compared to placebo controls” value was “prevents loss of visual acuity compared to placebo controls”.
